The record followed here is patent US8637092B2, “Pharmaceutical composition for treating diabetes and its process for preparation” (Tasly Pharmaceutical Group Co., Ltd., priority 2007, dated 2014).

This assay deals with STZ high-blood-glucose rats. The assay is described as follows: Efficacy test: blood glucose in streptozotocin (STZ) induced high-blood-glucose rats. The following applies: STZ model male SD rats, mean ± SD, n = 10. The format is in vivo. As to the method: Sixty of male SD rats with SPF grade, weighed 200-220 g. Tested drugs (TL-1, TL-2 and TL-3) were powder of the extract respectively prepared by Examples 3, 8 and 9. SD rats were fasted overnight after one-week adaptation, intraperitoneal and injected a solution of 2% (W/V) STZ prepared with […] citric acid buffer solution (pH 4.4) (65 mg/kg). Three days later, the blood was sampled from tail vein to assay blood glucose. Those animals with blood glucose level equal to or higher than 16.7 mmol/L were considered to be successful model. The modeled rats were randomly divided into model group, Metformin (125 mg/kg) group and different treatment groups (corresponding to 15.5 g crude drugs/kg). After one-week adaptation and the blood glucose detection, rats were administered by gastric infusion, once a day. All of the drugs were diluted with physiological saline to prepare into suspension for administration. Animals were free to access of food and water during the 15-day testing period. At the seventh and fourteenth day after administration, the rats were fasted for two hours after administration. Respectively, blood was sampled from tail vein to assay blood glucose with blood glucose meter (one-touch ultra). At the same time, the body weights of the rats were measured. Results were expressed as mean±SD ( X±SD), and t-test was used to evaluate the significant difference of measurement data between two groups.

Where [1] appears, read: gastric infusion once a day, Metformin 125 mg/kg, TL 15.5 g crude drugs/kg, fasted 2 h, tail vein blood.

In the case of `CN(C)C(=N)N=C(N)N` [Metformin], the “Blood glucose level before administration” value (baseline before gastric infusion) stood at 21.61 ± 2.066 mmol/L. For the same compound, under setting [1], the “Blood glucose level, 14 days after administration” value is 17.54 ± 1.222 mmol/L and the “blood glucose level, 7 days after administration” value turned out to be 18.64 ± 0.783 mmol/L.
